In ChEMBL document CHEMBL4177765, “Structure-Based Design of Inhibitors Targeting PrfA, the Master Virulence Regulator of Listeria monocytogenes” (J Med Chem, 2018):
pIC50: −log10 of the molar value. Active and inactive are the calls of the source. The calls are words filed in the database; no cut-off is given here.

Tests used:
[1] = target: T1, Listeriolysin regulatory protein (Listeria monocytogenes serovar 1/2a (strain ATCC BAA-679 / EGD-e)) (UniProt P22262); assay: Inhibition of PrfA in Listeria monocytogenes EGD-e assessed as downregulation of ActA expression at 1 uM by Western blot method
T1 sequence (whole entry): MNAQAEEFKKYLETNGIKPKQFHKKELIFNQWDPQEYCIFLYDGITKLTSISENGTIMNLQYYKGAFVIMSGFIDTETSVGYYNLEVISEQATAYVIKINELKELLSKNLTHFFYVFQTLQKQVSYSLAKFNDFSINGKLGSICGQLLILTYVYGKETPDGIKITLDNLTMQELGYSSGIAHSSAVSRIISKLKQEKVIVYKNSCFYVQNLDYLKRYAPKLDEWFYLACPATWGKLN

[2] = target: T1, Listeriolysin regulatory protein (Listeria monocytogenes serovar 1/2a (strain ATCC BAA-679 / EGD-e)); assay: Inhibition of PrfA in Listeria monocytogenes EGD-e assessed as downregulation of LLO expression at 1 uM by Western blot method
[3] = target: T1, Listeriolysin regulatory protein (Listeria monocytogenes serovar 1/2a (strain ATCC BAA-679 / EGD-e)); assay: Inhibition of PrfA in Listeria monocytogenes EGD-e assessed as downregulation of LLO expression at 10 uM by Western blot method
[4] = target: T1, Listeriolysin regulatory protein (Listeria monocytogenes serovar 1/2a (strain ATCC BAA-679 / EGD-e)); assay: Inhibition of PrfA in Listeria monocytogenes EGD-e assessed as downregulation of ActA expression at 10 uM by Western blot method
[5] = target: T2, Listeriolysin regulatory protein (Listeria monocytogenes serovar 1/2a (strain ATCC BAA-679 / EGD-e), UniProt P22262); assay: Binding affinity to Listeria monocytogenes 6-His-tagged PrfA expressed in Escherichia coli BL21 (DE3) pLysS assessed as inhibition of protein binding with biotinylated hpt-DNA by SPR method
T2 sequence (P22262 whole entry): T1 sequence (whole entry)

[6] = target: T1, Listeriolysin regulatory protein (Listeria monocytogenes serovar 1/2a (strain ATCC BAA-679 / EGD-e)); assay: Binding affinity to GFP expressing Listeria monocytogenes EGD-e PrfA expressed in Escherichia coli assessed as inhibition of bacterial uptake in human Caco2 cells at 20 uM incubated for 4 hrs by flow cytometric method relative to (R)-8-cyclopropyl-7-(naphthalen-1-ylmethyl)-5-oxo-3,5-dihydro-2H-thiazolo[3,2-a]pyridine-3-carboxylic acid
[7] = target: T1, Listeriolysin regulatory protein (Listeria monocytogenes serovar 1/2a (strain ATCC BAA-679 / EGD-e)); assay: Binding affinity to Listeria monocytogenes 6-His-tagged PrfA expressed in Escherichia coli BL21 (DE3) pLysS by ITC method
[8] = tested on: Listeria monocytogenes; assay: Effect on growth of Listeria monocytogenes EGD-e at 100 uM after 7 hrs; type: organism-based; details: in vivo
[9] = tested on: Listeria monocytogenes; assay: Antivirulence activity against Listeria monocytogenes EGD-e infected in chicken embryo assessed as increase in embryo life span at 5 uM measured over 72 hrs; type: functional
[10] = species: Gallus gallus; assay: Toxicity in chicken embryo at 4 to 8 uM measured over 72 hrs; type: organism-based; details: in vivo
[11] = target: T1, Listeriolysin regulatory protein (Listeria monocytogenes serovar 1/2a (strain ATCC BAA-679 / EGD-e)); assay: Binding affinity to GFP expressing Listeria monocytogenes EGD-e PrfA expressed in Escherichia coli assessed as inhibition of bacterial uptake in human Caco2 cells at 1 uM incubated for 4 hrs by flow cytometric method relative to control
[12] = tested on: Listeria monocytogenes; assay: Effect on PrfA expression in Listeria monocytogenes EGD-e at 1 uM by Western blot method; type: functional

Q: Which results are given for O=C(O)[C@@H]1CSc2c(C3CC3)c(Cc3cccc4ccccc34)cc(=O)n21?
A: inhibition [1]: Active; inhibition [2]: Active; inhibition [3]: Active; inhibition [4]: Active; pIC50 [5]: 5.35

Q: With Cc1ccc(Cc2cc(=O)n3c(c2C2CC2)SC[C@H]3C(=O)O)c2ccccc12 as the compound, how does the fold change (FC) [6] read?
A: 0.5

Q: For O=C(O)[C@@H]1CSc2c(C3CC3)c(Cc3cnc4ccccc4c3)cc(=O)n21, which fold change (FC) [6] is on record?
A: 13

Q: Which results are given for CN(C)c1c(Cc2cccc3ccccc23)cc(=O)n2c1SCC2C(=O)O.Cl (racemic)?
A: Activity [7]: Active; inhibition [1]: Active; inhibition [2]: Active; inhibition [3]: Active; inhibition [4]: Active; pIC50 [5]: 5.74; fold change (FC) [6]: 0.7; Activity [8]: Non-Toxic

Q: COc1c(Cc2cccc3ccccc23)cc(=O)n2c1SCC2C(=O)O (racemic) was tested. Which Activity [7] did it give?
A: Active

Q: What about the inhibition [1] of the same compound?
A: inactive

Q: And the inhibition [2]?
A: inactive

Q: And the inhibition [3]?
A: inactive

Q: And the inhibition [4]?
A: inactive

Q: What about the pIC50 [5] of the same compound?
A: 4.18

Q: And the fold change (FC) [6]?
A: 7

Q: With Cc1cccc(Cc2cc(=O)n3c(c2N(C)C)SCC3C(=O)O)c1C (racemic) as the compound, how does the Activity [7] read?
A: Active

Q: What about the inhibition [1] of the same compound?
A: Active

Q: What about the inhibition [2] of the same compound?
A: Active

Q: And the inhibition [3]?
A: Active

Q: And the inhibition [4]?
A: Active

Q: What about the pIC50 [5] of the same compound?
A: 5.52

Q: And the fold change (FC) [6]?
A: 0.6

Q: And the Activity [8]?
A: Non-Toxic

Q: How did the fold change (FC) [6] turn out when C=CCOc1c(Cc2cccc3ccccc23)cc(=O)n2c1SCC2C(=O)O (racemic) was run?
A: 4

Q: Which fold change (FC) [6] does the source give for CC(=O)Nc1c(Cc2cccc3ccccc23)cc(=O)n2c1SCC2C(=O)O (racemic) here?
A: 5

Q: For CC(C)COc1c(Cc2cccc3ccccc23)cc(=O)n2c1SCC2C(=O)O (racemic), which fold change (FC) [6] is on record?
A: 4

Q: Which fold change (FC) [6] does the source give for CC(C)Nc1c(Cc2cccc3ccccc23)cc(=O)n2c1SCC2C(=O)O (racemic) here?
A: 3

Q: CCOc1c(Cc2cccc3ccccc23)cc(=O)n2c1SCC2C(=O)O (racemic) was tested. Which fold change (FC) [6] did it give?
A: 5

Q: With CCc1cc(=O)n2c(c1N(C)C)SCC2C(=O)O (racemic) as the compound, how does the fold change (FC) [6] read?
A: 10

Q: COC(=O)Nc1c(Cc2cccc3ccccc23)cc(=O)n2c1SCC2C(=O)O (racemic) was tested. Which fold change (FC) [6] did it give?
A: 6

Q: Which fold change (FC) [6] does the source give for CS(=O)(=O)Nc1c(Cc2cccc3ccccc23)cc(=O)n2c1SCC2C(=O)O (racemic) here?
A: 5

Q: Which fold change (FC) [6] does the source give for CS(=O)(=O)c1c(Cc2cccc3ccccc23)cc(=O)n2c1SCC2C(=O)O (racemic) here?
A: 7

Q: With Nc1c(Cc2cccc3ccccc23)cc(=O)n2c1SCC2C(=O)O (racemic) as the compound, how does the fold change (FC) [6] read?
A: 3

Q: With O=C(O)C1CSc2c(O)c(Cc3cccc4ccccc34)cc(=O)n21 (racemic) as the compound, how does the fold change (FC) [6] read?
A: 5

Q: With Cc1ccc(Cc2cc(=O)n3c(c2N(C)C)SCC3C(=O)O)c2ccccc12 (racemic; form 1) [listing 1 of 2 here] as the compound, how does the ILS [9] read?
A: 6 h

Q: What about the Activity [10] of the same compound?
A: Non-Toxic

Q: What about the pIC50 [5] of the same compound?
A: 5.82

Q: And the Activity [8]?
A: Non-Toxic

Q: Which Activity [7] does the source give for Cc1ccc(Cc2cc(=O)n3c(c2N(C)C)SCC3C(=O)O)c2ccccc12 (racemic; form 1) [listing 2 of 2 here] here?
A: Active

Q: What about the inhibition [11] of the same compound?
A: 90%

Q: What about the inhibition [1] of the same compound?
A: Active

Q: What about the inhibition [2] of the same compound?
A: Active

Q: What about the Activity [12] of the same compound?
A: inactive

Q: What about the fold change (FC) [6] of the same compound?
A: 0.7

Q: With Cc1ccc(Cc2cc(=O)n3c(c2N(C)C)SCC3C(=O)O)c2ccccc12.c1c[nH]cn1 (racemic; form 2) as the compound, how does the ILS [9] read?
A: 9 h
